The text below walks through data of PMC6332173, “Diterpenoids from Saliva plebeia R. Br. and Their Antioxidant and Anti-Inflammatory Activities” (Molecules, 2015).

A value given as a limit tells only on which side of the number the result lay.

For data set [1], the system named is intracellular ROS production in LPS-stimulated RAW 264.7 macrophages. Kind of data set: Intracellular ROS assay in LPS-stimulated RAW 264.7 macrophages (DCFH-DA). It is filed as cell-based, murine. The note with it: Mus musculus, RAW264.7, LPS 1 μg/mL, 6 h, mean ± SD, n=3, read-out: Intracellular ROS Inhibition Rate (%). The procedure:
Intracellular ROS assay: Intracellular ROS assay was performed according to the method reported previously. RAW 264.7, a murine macrophage cell line, was obtained from the Pharmacognosy Laboratory of Prof. Mian Zhang, China Pharmaceutical University. Cells were cultured in DMEM containing 10% fetal bovine serum, 100 U/mL penicillin and 100 U/mL streptomycin at 37 °C in a humidified atmosphere containing 5% CO2 and 95% air. The cells (1 × 10^5 cells/well) were pre-incubated in the 96-well plate for 12 h. Then, cells were cultured in normal medium as normal group, or 1 μg/mL LPS as control group, or 1 μg/mL LPS plus different concentration of compounds as test group. After the cells of each group were treated for 6 h, the medium was removed, and the cells were incubated with 50 μL 2,7-Dichlorofluorescein diacetate (DCFH-DA) (10 μM) for 20 min at 37 °C. After that, the cells were washed with PBS carefully three times to remove free DCFH-DA. The absorbance was determined at 525 nm using Thermo Scientific Varioskan Flash. Apocynin was used as the positive control. The inhibitory rate (%) was calculated according to the equation: Inhibition rate (%) = [1 − (B1 − B0)/(B2 − B0)] × 100 (2) B1 refers to the absorbance of […], B0 refers to the absorbance of normal group.

The nature of data set [2]: DPPH radical scavenging assay. The settings on record: for DPPH radical scavenging rate: 30 min, absorbance 517 nm. As for the experimental part:
DPPH radical assay: DPPH radical scavenging assay was performed according to previous protocol with modifications. DPPH was dissolved in ethanol at the concentration of 200 µM. One hundred microliters of compounds (5, 10, 20, 30, 50 µM) were added to the 96-well plates, and evaded the light preservation for 30 min after addition 100 µL DPPH. Then the absorbance was measured at 517 nm using Thermo Scientific Varioskan Flash. Vitamin C was used as the positive control. The inhibitory effect was expressed as scavenging rate of alleviation and was calculated as follows: Scavenging rate (%) = [1 − (A1 − A2)/A0] × 100 (1) A1 refers to the absorbance with various concentrations of test compounds and DPPH, A2 refers to the absorbance with various concentrations of test compounds and ethanol, A0 refers to the absorbance with distilled water and DPPH.
In general terms: DPPH is a stable violet radical that fades when it is reduced.

Data set [3] relates to NO production in LPS-stimulated RAW 264.7 macrophages. Kind of data set: NO production in LPS-stimulated RAW 264.7 macrophages (Griess reaction). The note with it: Mus musculus, RAW264.7; for inhibition at 3 µM / inhibition at 10 µM / inhibition at 30 µM / inhibition at 100 µM: LPS 1 μg/mL, 24 h, mean ± SD, n=3, read-out: NO Inhibition Rate (%); for IC50: LPS-induced RAW 264.7 macrophages, read-out: IC50 of NO production inhibition. It is filed as cell-based, murine. In general terms: Nitrite, measured by Griess reagent, commonly stands in for NO production.

For a further data set, the system named is RAW 264.7 macrophages. It counts as cell-based, murine. The settings on record: mouse, 24 h, 100 µM. The procedure:
The MTT assay was used to evaluate the cell viability, as previously reported. RAW 264.7 macrophages were seeded at a density of 1 × 10^5 cells /mL in 96-well plates and cultured for 24 h with the test compound (100 µM) at 37 °C in a 5% CO2 incubator. Subsequently, 20 μL of MTT solution (5 mg/mL) was added to each well and incubated for 4 h at 37 °C and the resulted crystals were dissolved in DMSO. The optical density was measured at 490 nm using Thermo Scientific Varioskan Flash.

In the case of `COc1cc(C(C)=O)ccc1O` [Apocynin, reference compound], in data set [1], the inhibition at 100 µM was 92.9 ± 2.6%.

As for `CC(C)C1CC2C(CO)(CC(O)C(O)C2(C)C)c2c(O)cc(O)cc21` [Compound 1, 1,2,3,4,4α,9,10,10α-octahydro-(4α-hydroxyymethyl)-1,1-dimethyl-9-(1-methylethyl)-(2S,3S,4αR,9R,10αS)-2,3,5,7-phenanthrenetertrol], the melting point is 232 to 233 °C. Besides, in data set [1], the inhibition at 10 µM turned out to be 24.6 ± 2.4%, the inhibition at 30 µM is 56.1 ± 8.2% and the inhibition at 100 µM amounted to 64.8 ± 5.2%. In data set [2], this compound registered an IC50 of 29.6 µM. Moreover, in data set [2] (5 µM compound), the “DPPH radical scavenging rate” value is 16.6 ± 3.3%. Besides, the “DPPH radical scavenging rate” value in data set [2] (10 µM compound) worked out at 21.0 ± 1.8%. Besides, the “DPPH radical scavenging rate” value in data set [2] (20 µM compound) was 39.2 ± 4.1%. Besides, the “DPPH radical scavenging rate” value in data set [2] (30 µM compound) is 53.4 ± 8.2%. Further, the “DPPH radical scavenging rate” value in data set [2] (50 µM compound) is listed as 75.4 ± 6.8%. Also, in data set [3], the inhibition at 3 µM was determined as 18 ± 3.2%, the inhibition at 10 µM came to 42.9 ± 2.5%, the inhibition at 30 µM came out at 68.9 ± 5.2% and the inhibition at 100 µM is 86.6 ± 4.9%. Further, the IC50 in data set [3] was found to be 18 µM. In the data set on RAW 264.7 macrophages, the “Cell Viability (% vs. Control)” value was found to be 97.3 ± 4.2%.

With `CC(C)c1cc2c(c(O)c1O)[C@@]13CCCC(C)(C)[C@@H]1C[C@@H]2OC3=O` [Compound 2, carnosol], the results for the inhibition at 10 µM in data set [1] and in data set [3] were 29.5 ± 3.1% and 32 ± 4.8%, respectively. Moreover, the inhibition at 30 µM came to 53.2 ± 2% in data set [1] and 63.3 ± 5.3% in data set [3]. In addition, the inhibition at 100 µM in data set [1] was determined as 80.3 ± 1.3%; in data set [3], 103 ± 5.9%. Moreover, the values for the IC50 in data set [2] and in data set [3] were 28.8 µM and 21.5 µM, respectively. For the same compound, the “DPPH radical scavenging rate” value was determined as 5.9 ± 1.6% in data set [2] (5 µM compound); 15.4 ± 2.6% in data set [2] (10 µM compound); 29.5 ± 1.9% in data set [2] (20 µM compound); 59.3 ± 4.2% in data set [2] (30 µM compound); 86.1 ± 3.3% in data set [2] (50 µM compound). Further, the inhibition at 3 µM in data set [3] worked out at 20.5 ± 2.6%. The “Cell Viability (% vs. Control)” value in the data set on RAW 264.7 macrophages was determined as 110.5 ± 0.9%.

`CC(C)c1cc(O)c2c(c1O)[C@@H]1CC3C(C)(C)CCC[C@]23C(=O)O1` (stereo partly drawn) [Compound 3, isocarnosol]: the values for the inhibition at 10 µM in data set [1] and in data set [3] were 13.5 ± 1.1% and 29.9 ± 5%, respectively. Further, the inhibition at 30 µM was determined as 16 ± 1.9% in data set [1] and 59.4 ± 4.7% in data set [3]. The inhibition at 100 µM in data set [1] was 22 ± 1.8%; in data set [3] it was 98.1 ± 6.5%. Further, the IC50 is over 50 µM in data set [2] and 23.6 µM in data set [3]. In addition, the “DPPH radical scavenging rate” value worked out at 3.4 ± 2.3% in data set [2] (5 µM compound); 11.5 ± 2.4% in data set [2] (10 µM compound); 24.5 ± 1.2% in data set [2] (20 µM compound); 42.6 ± 6.0% in data set [2] (30 µM compound); 49.0 ± 1.1% in data set [2] (50 µM compound). Further, the inhibition at 3 µM in data set [3] is 18.8 ± 3%. In addition, the “Cell Viability (% vs. Control)” value in the data set on RAW 264.7 macrophages is listed as 106.7 ± 1.5%.

With `CC(C)c1cc(C=O)c2c(c1O)OC(=O)C1C(C)(C)CCC[C@]21C=O` (stereo partly drawn) [Compound 4, saficinolide], the figures for the inhibition at 10 µM in data set [1] and in data set [3] were 8.1 ± 3.2% and 11.9 ± 5.8%, respectively. Besides, the inhibition at 30 µM came out at 16.6 ± 4.4% in data set [1] and 15.8 ± 4.4% in data set [3]. Besides, the figures for the inhibition at 100 µM in data set [1] and in data set [3] were 47.1 ± 6.1% and 28.7 ± 5.3%, respectively. The half-maximal inhibitory concentration (IC50) is over 50 µM in data set [2] and over 100 µM in data set [3]. Further, the “DPPH radical scavenging rate” value in data set [2] (5 µM compound) is given as 14.5 ± 2.9%; in data set [2] (10 µM compound), 15.2 ± 6.0%; in data set [2] (20 µM compound) it was 15.5 ± 1.3%; in data set [2] (30 µM compound), 7.0 ± 4.7%; in data set [2] (50 µM compound) it was 13.2 ± 1.5%. For the same compound, the inhibition at 3 µM in data set [3] amounted to 6.3 ± 2.4%. In the data set on RAW 264.7 macrophages, the “Cell Viability (% vs. Control)” value was 101.3 ± 5.0%.

For `CC(C)c1cc2c(c(O)c1O)[C@]13CO[C@H]2C[C@H]1C(C)(C)C[C@H](O)C3` [Compound 5, 2,11,12-trihydroxy-7,20-epoxy-8,11,13-abietatriene], the inhibition at 10 µM in data set [1] came to 13 ± 3.3%; in data set [3] it was 4.9 ± 7.3%. For the same compound, the figures for the inhibition at 30 µM in data set [1] and in data set [3] were 51.8 ± 2.2% and 16.4 ± 5.4%, respectively. The inhibition at 100 µM in data set [1] is 91.3 ± 9.2%; in data set [3] it was 25.6 ± 4%. The IC50 in data set [2] was 20 µM; in data set [3] it was over 100 µM. In addition, the “DPPH radical scavenging rate” value in data set [2] (5 µM compound) was 9.2 ± 5.8%; in data set [2] (10 µM compound), 23.8 ± 6.6%; in data set [2] (20 µM compound), 55.4 ± 2.7%; in data set [2] (30 µM compound) it was 72.6 ± 5.7%; in data set [2] (50 µM compound) it was 89.6 ± 1.3%. The inhibition at 3 µM in data set [3] turned out to be 5.7 ± 3.8%. Further, the “Cell Viability (% vs. Control)” value in the data set with RAW 264.7 macrophages was determined as 91.6 ± 2.3%.

Compound `O=C1O[C@H]([C@@H](O)CO)C(O)=C1O` [Vit. C, Vitamin C, reference compound] gave an IC50 in data set [2] of 26.5 µM. Besides, the “DPPH radical scavenging rate” value in data set [2] (5 µM compound) turned out to be 6.1 ± 4.4%; in data set [2] (10 µM compound), 21.6 ± 2.2%; in data set [2] (20 µM compound) it was 43.8 ± 2.6%; in data set [2] (30 µM compound), 57.6 ± 5.4%; in data set [2] (50 µM compound), 89.1 ± 2.2%.

For `CC(C)Cc1ccc(C(C)C(=O)O)cc1` (stereo not drawn) [ibuprofen, reference compound], the inhibition at 30 µM in data set [3] stood at 32.3 ± 4.2%.

The term inhibition denotes the drop in the measured response relative to a control, in per cent. Broadly, the IC50 is the concentration at which inhibition is half-maximal. The melting point is the temperature, or range, at which the solid turns liquid.
